The source made the active and inactive calls.
Legend:
[1] = molecular target: Neuropeptide Y receptor type 1 (Homo sapiens, UniProt P25929); experiment: Fluorescence-based counterscreen for agonists of NPY-Y2: cell-based high-throughput dose response assay for agonists of NPY-Y1.; type: functional
HEK293 = experiment: Fluorescence-based counterscreen for potentiators or agonists of NPY-Y2: cell-based high-throughput dose response assay to identify inhibitors of cyclic nucleotide gated ion channel (CNGC) activity. In this assay, the parental HEK293 cell line transfected with a cyclic-nucleotide gated ion channel (CNGC)-based cAMP sensor is used to measure inhibition of isoproterenol-induced CNGC activity by test compound.; type: functional; conditions: Homo sapiens;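 further: stimulus is 1 µM isoproterenol at EC100 plus PDE inhibitor Ro 20-1724 at 25 µM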
Aminopeptidase N = molecular target: T1, Aminopeptidase N (Plasmodium falciparum FcB1/Columbia, UniProt O96935); experiment: malaria alanyl aminopeptidase activity blockers – biochemical, fluorogenic H-Leu-NHMec substrate, 1536-well (AID 1445); parameters: species or system Plasmodium falciparum 3D7, 3D7
T1 sequence (O96935 whole entry): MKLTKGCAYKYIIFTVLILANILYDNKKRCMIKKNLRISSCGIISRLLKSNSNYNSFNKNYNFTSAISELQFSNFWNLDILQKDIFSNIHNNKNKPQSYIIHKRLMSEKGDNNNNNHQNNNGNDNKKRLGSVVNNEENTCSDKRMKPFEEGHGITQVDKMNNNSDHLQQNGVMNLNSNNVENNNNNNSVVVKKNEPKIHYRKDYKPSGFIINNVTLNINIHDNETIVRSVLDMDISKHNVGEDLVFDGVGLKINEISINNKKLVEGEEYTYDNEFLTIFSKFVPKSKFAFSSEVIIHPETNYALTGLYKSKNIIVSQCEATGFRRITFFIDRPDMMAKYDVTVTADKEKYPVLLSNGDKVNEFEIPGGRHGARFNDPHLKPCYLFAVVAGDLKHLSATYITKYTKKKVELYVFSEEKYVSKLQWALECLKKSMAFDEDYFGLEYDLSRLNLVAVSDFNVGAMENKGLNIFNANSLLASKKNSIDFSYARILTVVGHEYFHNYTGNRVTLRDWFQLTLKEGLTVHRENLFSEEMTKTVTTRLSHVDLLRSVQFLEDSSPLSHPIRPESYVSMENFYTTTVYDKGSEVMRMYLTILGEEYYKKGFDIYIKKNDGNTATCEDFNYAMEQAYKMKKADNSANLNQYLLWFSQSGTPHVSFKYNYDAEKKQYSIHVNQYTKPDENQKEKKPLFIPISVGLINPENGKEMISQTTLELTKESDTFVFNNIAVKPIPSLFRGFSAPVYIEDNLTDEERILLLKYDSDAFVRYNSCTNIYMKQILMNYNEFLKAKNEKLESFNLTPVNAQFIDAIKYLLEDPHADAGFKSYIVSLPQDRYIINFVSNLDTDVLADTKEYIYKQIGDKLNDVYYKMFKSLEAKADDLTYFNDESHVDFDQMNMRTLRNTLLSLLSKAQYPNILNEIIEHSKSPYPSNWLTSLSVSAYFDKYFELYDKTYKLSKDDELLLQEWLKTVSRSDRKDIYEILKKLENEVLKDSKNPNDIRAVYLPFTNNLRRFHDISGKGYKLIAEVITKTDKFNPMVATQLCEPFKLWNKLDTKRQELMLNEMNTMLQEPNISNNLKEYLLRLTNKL

[2] = molecular target: T2, Probable nicotinate-nucleotide adenylyltransferase (Staphylococcus aureus (strain N315), UniProt P65502); type: functional, Staphylococcus aureus subsp. aureus N315;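 on IC50 Mean: confirmatory dose-response retesting of NadD inhibitor hits first found in an ultra-high-throughput screen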
[3] = CCR5-tropic HIV-1 fusion blockers – cell-based, CCR5-tropic Env, dose response (AID 2279); type: functional
[4] = molecular target: Neuropeptide Y receptor type 2 (Homo sapiens, UniProt P49146); experiment: Fluorescence-based cell-based high-throughput dose response assay for agonists of NPY-Y2. [Related pubchem assays: 1703 (Screening assay (CNGC inhibitors).), 1359 (Screening assay (NPY-Y2 potentiators or agonists).), 1304 (Screening assay (NPY-Y1 potentiators or agonists).), 1710 (Screening assay (NPY-Y2 agonists).), 1791 (Summary AID.)]; type: functional
Vero = experiment: viability of Vero cells under compound – cytotoxicity control for flavivirus capping enzyme inhibitors (AID 588742); type: functional; conditions: Chlorocebus sabaeus
[5] = molecular target: T2, Probable nicotinate-nucleotide adenylyltransferase; type: functional, Staphylococcus aureus subsp. aureus N315; conditions: read-out: IC50_Mean
[6] = mitochondrial function rescue without frataxin homolog – Friedreich's ataxia, plus single-dose screen, dose response (AID 1465); type: functional;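 further: yeast depleted of Yfh1p frataxin homolog grown on glycerol needing respiration; WST-1 tetrazolium dye reduction as measure of cellular dehydrogenase metabolic activity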
Cytochrome P450 2D6 = Cytochrome P450 2D6 (Homo sapiens, UniProt P10635); experiment: qHTS Assay for Inhibitors and Substrates of Cytochrome P450 2D6. [Related pubchem assays: 410 ]; type: ADME; conditions: read-out: Potency
[7] = molecular target: Acyl-homoserine lactone acylase PvdQ (Pseudomonas aeruginosa (strain LESB58), UniProt Q9I194); experiment: PvdQ acylase enzyme activity blockers – biochemical, fluorescence, plate reader and imaging, cherry-picks, dose response (AID 493231)
Estrogen receptor = molecular target: T3, Estrogen receptor (Homo sapiens, UniProt P03372); experiment: ERα coactivator recruitment enhancers – biochemical, TR-FRET, ERα LBD, dose response (AID 737)
T3 sequence (P03372 whole entry): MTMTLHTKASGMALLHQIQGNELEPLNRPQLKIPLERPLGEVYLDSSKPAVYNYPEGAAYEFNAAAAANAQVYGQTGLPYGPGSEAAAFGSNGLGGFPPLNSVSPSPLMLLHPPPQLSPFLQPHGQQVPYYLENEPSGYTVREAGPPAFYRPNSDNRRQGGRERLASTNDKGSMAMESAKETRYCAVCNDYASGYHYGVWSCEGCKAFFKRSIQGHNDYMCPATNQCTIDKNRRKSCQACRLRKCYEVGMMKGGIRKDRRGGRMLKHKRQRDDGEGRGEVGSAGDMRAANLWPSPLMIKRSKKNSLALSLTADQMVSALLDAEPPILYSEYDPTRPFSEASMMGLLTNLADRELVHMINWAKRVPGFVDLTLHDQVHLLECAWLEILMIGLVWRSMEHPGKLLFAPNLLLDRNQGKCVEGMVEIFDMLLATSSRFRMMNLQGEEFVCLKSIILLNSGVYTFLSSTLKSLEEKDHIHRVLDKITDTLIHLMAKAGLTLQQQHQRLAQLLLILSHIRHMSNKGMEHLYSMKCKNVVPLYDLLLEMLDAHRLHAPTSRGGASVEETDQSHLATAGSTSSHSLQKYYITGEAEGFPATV

[8] = HPDE-C7 pancreatic duct cell viability loss – fluorescence, HTS (AID 430); type: functional, cell-based; conditions: Homo sapiens
[9] = viability loss of HPDE-C7K cells – cell-based, fluorescence, HTS, primary screen (AID 431); type: functional; conditions: Homo sapiens
[10] = molecular target: 72 kDa type IV collagenase (Homo sapiens, UniProt P08253); experiment: Dose Response validation of uHTS RPN11 inhibitor hits using a MMP-2 Fluorescence assay.; type: functional
Prothrombin = Prothrombin (Bos taurus, UniProt P00735); experiment: thrombin protease inhibitors – biochemical, fluorescence polarization, uHTS hits, dose response (AID 602369); type: functional
Caspase-6 = molecular target: T4, Caspase-6 (Homo sapiens, UniProt P55212); experiment: inhibition of CASP6 peptide cleavage – biochemical, VEID-R110 fluorescence, cherry-pick, dose response (AID 720632)
T4 sequence (P55212 whole entry): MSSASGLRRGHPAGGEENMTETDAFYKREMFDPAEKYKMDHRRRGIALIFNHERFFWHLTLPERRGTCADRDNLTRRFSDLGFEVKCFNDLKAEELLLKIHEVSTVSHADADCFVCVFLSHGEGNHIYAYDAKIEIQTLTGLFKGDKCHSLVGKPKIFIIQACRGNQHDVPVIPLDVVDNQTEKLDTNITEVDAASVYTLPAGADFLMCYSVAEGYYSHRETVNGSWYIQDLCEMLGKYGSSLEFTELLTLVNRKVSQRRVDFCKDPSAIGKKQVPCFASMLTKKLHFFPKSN

cells = conditions: A549
[11] = molecular target: T5, Small ubiquitin-related modifier 1 (Homo sapiens, UniProt P63165); experiment: SUMO1 protein interaction blockers, potency – biochemical, fluorescence polarization, uHTS hits, dose response (AID 624382); type: functional; conditions: read-out: IC50_Mean
[12] = molecular target: cAMP-dependent protein kinase catalytic subunit alpha (Homo sapiens, UniProt P17612); experiment: inhibition of human PKA kinase activity – biochemical, Caliper mobility shift, dry powder samples, dose response (AID 504583)
[13] = viability loss in HepG2 liver cells – cell-based, ATP luminescence, cherry-pick, set 6, cytotoxicity control, dose response (AID 1053125); type: functional
[14] = molecular target: T5, Small ubiquitin-related modifier 1; experiment: SUMO1 protein-protein binding blockers, potency – biochemical, FRET, dose response (AID 624383); type: functional; conditions: read-out: IC50_Mean
[15] = molecular target: 26S proteasome non-ATPase regulatory subunit 14 (Homo sapiens, UniProt O00487); experiment: inhibition of proteasome subunit RPN11 – biochemical, fluorescence polarization, uHTS hits, confirmation (AID 602368); type: functional
[16] = molecular target: T6, Alkaline phosphatase, tissue-nonspecific isozyme (Homo sapiens, UniProt P05186)
T6 sequence (P05186 whole entry): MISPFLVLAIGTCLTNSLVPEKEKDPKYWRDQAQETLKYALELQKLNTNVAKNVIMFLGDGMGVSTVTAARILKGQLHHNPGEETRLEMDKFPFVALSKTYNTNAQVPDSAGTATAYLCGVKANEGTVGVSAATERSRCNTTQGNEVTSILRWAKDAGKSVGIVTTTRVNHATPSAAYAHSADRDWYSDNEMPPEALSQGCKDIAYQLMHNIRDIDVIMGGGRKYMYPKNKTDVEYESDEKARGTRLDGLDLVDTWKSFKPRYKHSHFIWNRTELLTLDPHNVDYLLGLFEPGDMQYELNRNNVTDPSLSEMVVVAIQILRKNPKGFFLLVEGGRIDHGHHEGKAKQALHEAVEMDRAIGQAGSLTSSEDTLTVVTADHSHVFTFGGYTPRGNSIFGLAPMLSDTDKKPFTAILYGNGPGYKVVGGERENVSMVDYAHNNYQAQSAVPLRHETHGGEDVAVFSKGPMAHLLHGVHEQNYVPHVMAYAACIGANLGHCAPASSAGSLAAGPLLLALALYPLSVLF

COc1ccccc1NS(=O)(=O)c1cccc(N2C(=O)/C(=C\Nc3ccccc3C(=O)O)c3ccccc3C2=O)c1
EC50 [1]: > 11.8 µM (not active) | EC50 (HEK293): 13.4 µM (not active) | IC50 (Aminopeptidase N): 30.4 µM (active) | IC50 [2]: 2.81 µM (active) | IC50 [3]: 19.6 µM (active) | EC50 [4]: 20.1 µM (not active) | CC50 (Vero): > 40 µM (active) | IC50 [5]: 22.2 µM (active)

S=C(NCc1ccc2c(c1)OCO2)Nc1ccc(-c2nc3ccccc3[nH]2)cc1
EC50 [6]: > 100 µM (active)

COC(=O)NC(c1ccc(F)cc1)C(C(C)=O)C(=O)OC (centres undefined)
AC50 (Cytochrome P450 2D6): 3.16 µM (inconclusive)

O=C1NN(c2ccccc2)C(=O)C2C1C1C=CC2C12CC2 (centres undefined)
AC50 [7]: 18.8 µM (active)

CCC(=O)Oc1ccc(C(CC)C(CC)c2ccc(OC(=O)CC)cc2)cc1 (centres undefined)
EC50 (Estrogen receptor): 10.2 µM (active) | EC50 [8]: 9.19 µM (active) | EC50 [9]: 10.7 µM (active)

Nc1nc(-c2cc(O)ccc2[N+](=O)[O-])cc(-c2ccccc2)c1[N+](=O)[O-]
IC50 [10]: > 100 µM (inactive) | IC50 (Prothrombin): 53 µM (active) | AC50 (Caspase-6): 10.7 µM (active) | AC50 (cells): 42.5 µM (active) | IC50 [11]: > 66.6 µM (inactive) | AC50 [12]: 1.11 µM (active) | AC50 [13]: > 52 µM (inactive) | IC50 [14]: 9.51 µM (active) | IC50 [15]: 23.9 µM (active)

Oc1ccccc1/C=N/Nc1cccc2cccnc12
EC50 [16]: > 100 µM (not active)

— ChEMBL document CHEMBL1201862, “PubChem BioAssay data set” (2004)
